Results from patent US20260028326A1, “COMPOUND BASED ON ISOINDOLINE-SUBSTITUTED GLUTARIMIDE BACKBONE AND USE THEREOF” (GLUETACS THERAPEUTICS (SHANGHAI) CO., LTD., priority 2022, published 2026).

How the values were obtained:
[1] = target: human Cereblon WT GST-tagged protein (Homo sapiens (Human), UniProt Q96SW2); assay: CRBN-binding affinity, HTRF (CEREBLON BINDING kit)
Method in brief: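 HTRF competition readout: compounds compete with a thalidomide-Re conjugate for GST-tagged wild-type human CRBN detected via Eu-labelled anti-GST antibody. Inhibition rate derived relative to protein-free blank wells.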

[2] = target: IKZF1 protein (Homo sapiens (Human), UniProt Q13422+Q96SW2); assay: Western-blot assay of substrate protein degradation in hPBMC, IKZF1; assay type: cell-based
Chain of IKZF1 protein (Q13422 whole entry): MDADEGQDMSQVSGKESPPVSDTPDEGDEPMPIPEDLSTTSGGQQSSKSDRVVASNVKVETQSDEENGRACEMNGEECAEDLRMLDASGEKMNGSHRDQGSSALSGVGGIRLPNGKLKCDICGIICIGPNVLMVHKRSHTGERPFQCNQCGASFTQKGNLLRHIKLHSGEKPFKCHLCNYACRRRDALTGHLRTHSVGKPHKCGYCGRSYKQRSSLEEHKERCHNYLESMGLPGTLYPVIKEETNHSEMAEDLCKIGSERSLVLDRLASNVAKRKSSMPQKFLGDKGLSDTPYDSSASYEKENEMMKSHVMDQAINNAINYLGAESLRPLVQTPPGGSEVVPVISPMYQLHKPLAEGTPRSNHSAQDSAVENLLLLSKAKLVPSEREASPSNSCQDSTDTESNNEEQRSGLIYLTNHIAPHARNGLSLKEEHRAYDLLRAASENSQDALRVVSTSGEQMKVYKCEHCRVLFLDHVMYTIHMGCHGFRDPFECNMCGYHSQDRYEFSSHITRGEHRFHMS
Chain of IKZF1 protein (Q96SW2 whole entry): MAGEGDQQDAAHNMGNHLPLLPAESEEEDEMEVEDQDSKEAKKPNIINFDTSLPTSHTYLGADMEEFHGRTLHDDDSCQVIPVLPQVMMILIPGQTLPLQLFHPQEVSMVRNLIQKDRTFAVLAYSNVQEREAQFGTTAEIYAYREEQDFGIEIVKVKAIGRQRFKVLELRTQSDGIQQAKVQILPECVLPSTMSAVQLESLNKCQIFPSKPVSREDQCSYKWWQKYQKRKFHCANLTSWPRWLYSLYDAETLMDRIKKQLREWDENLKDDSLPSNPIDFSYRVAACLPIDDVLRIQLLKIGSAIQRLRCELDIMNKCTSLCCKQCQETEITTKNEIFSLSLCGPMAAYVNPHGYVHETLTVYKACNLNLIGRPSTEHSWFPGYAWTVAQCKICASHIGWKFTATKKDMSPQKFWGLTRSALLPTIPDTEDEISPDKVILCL
Chain of IKZF1 protein (Q16531 whole entry partner): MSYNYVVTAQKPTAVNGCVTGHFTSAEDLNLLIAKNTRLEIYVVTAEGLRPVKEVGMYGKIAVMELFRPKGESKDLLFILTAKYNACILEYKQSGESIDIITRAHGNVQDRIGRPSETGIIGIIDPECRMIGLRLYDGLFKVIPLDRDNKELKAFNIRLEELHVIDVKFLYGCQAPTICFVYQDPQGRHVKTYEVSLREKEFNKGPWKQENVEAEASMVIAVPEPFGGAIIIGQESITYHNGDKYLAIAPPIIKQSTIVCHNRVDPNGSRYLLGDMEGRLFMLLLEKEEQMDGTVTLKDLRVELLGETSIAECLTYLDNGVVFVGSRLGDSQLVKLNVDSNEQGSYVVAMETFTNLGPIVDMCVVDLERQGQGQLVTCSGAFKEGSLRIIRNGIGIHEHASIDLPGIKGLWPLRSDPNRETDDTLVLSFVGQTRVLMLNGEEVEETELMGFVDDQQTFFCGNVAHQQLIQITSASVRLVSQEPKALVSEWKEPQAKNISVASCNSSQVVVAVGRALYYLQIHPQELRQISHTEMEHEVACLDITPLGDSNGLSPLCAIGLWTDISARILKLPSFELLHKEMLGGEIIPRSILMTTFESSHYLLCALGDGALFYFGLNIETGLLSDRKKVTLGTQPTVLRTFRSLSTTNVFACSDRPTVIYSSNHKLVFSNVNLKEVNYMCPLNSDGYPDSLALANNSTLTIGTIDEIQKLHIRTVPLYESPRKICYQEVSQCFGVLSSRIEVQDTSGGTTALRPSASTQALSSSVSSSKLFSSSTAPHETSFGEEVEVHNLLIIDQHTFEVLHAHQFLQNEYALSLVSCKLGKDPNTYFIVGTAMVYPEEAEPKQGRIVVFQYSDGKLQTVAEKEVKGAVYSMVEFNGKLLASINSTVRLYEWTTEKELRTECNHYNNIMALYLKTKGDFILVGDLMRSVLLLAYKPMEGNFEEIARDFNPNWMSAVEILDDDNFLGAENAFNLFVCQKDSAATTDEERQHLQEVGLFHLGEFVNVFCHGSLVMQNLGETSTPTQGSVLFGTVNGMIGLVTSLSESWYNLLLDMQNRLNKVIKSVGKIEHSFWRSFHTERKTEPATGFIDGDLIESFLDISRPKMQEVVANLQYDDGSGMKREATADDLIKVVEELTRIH

[3] = target: IKZF3 protein (Homo sapiens (Human), UniProt Q96SW2+Q9UKT9); assay: Western-blot assay of substrate protein degradation in hPBMC, IKZF3; assay type: cell-based
Chain of IKZF3 protein (Q9UKT9 whole entry): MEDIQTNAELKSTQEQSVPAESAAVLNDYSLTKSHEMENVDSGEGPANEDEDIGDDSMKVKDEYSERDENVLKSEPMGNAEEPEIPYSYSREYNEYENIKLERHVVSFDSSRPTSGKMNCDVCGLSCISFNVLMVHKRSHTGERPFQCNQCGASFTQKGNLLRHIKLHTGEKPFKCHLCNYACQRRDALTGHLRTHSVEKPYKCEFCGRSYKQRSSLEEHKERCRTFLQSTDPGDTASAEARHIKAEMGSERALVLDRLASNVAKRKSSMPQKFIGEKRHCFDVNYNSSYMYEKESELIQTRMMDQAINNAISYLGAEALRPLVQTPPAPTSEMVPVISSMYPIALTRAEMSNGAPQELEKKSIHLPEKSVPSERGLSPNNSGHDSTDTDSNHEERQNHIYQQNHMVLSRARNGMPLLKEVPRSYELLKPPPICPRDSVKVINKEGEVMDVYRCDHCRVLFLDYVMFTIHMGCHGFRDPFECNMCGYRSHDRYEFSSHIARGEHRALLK
Chain of IKZF3 protein (Q96SW2 whole entry): as the sequence (Q96SW2 whole entry) above
Chain of IKZF3 protein (Q16531 whole entry partner): as the sequence (Q16531 whole entry partner) above

[4] = target: GSPT1 protein (Homo sapiens (Human), UniProt P15170+Q96SW2); assay: Western-blot assay of substrate protein degradation in hPBMC, GSPT1; assay type: cell-based
Chain of GSPT1 protein (P15170 whole entry): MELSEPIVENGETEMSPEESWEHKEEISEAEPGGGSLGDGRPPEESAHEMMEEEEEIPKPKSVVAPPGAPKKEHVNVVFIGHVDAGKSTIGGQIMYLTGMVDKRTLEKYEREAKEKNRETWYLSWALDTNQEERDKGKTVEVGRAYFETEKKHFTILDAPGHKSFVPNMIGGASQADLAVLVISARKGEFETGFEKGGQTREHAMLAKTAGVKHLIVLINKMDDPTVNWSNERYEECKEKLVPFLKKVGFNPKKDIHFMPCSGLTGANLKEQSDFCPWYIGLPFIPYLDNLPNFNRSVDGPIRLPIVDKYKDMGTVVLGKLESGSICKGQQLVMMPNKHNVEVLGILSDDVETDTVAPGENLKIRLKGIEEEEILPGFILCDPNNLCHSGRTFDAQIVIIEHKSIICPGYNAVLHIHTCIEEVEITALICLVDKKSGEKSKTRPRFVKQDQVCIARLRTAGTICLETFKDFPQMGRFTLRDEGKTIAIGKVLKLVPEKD
Chain of GSPT1 protein (Q96SW2 whole entry): as the sequence (Q96SW2 whole entry) above
Chain of GSPT1 protein (Q16531 whole entry partner): as the sequence (Q16531 whole entry partner) above

[5] = Pharmacokinetic study, oral administration, mouse plasma; assay type: in vivo, mice; details: p.o. 30 mg/kg
Method: The experimental animals used can be those commonly used in pharmacokinetic experiments, e.g., adult and healthy rodents (e.g., mice, rats (such as Sprague-Dawley (SD) rats), guinea pigs) or non-rodents (rabbits, dogs, and monkeys). In the present disclosure, mice were used as the experimental animals.
The experimental animals were divided into two groups: a control group (for collecting blank plasma) and an orally administered group (dosed at 10 mg/kg or 30 mg/kg). Blood samples were collected at predetermined sampling time points after administration, such as 0.25 h, 0.5 h, 1 h, 2 h, 4 h, 8 h, and 24 h post-dosing. Blank plasma was collected from the control group.
Plasma samples were preprocessed before analysis: 10 μL of 50% acetonitrile and 200 μL of internal standard solution (containing 50 ng/mL dexamethasone in acetonitrile) were added to 10 μL of plasma samples. For the blank control group, the same volume of acetonitrile was added instead of the internal standard. The processed samples were vortexed, centrifuged, and the supernatant was taken for LC-MS/MS injection analysis.
After preparing standard curves and quality control (QC) samples, the concentrations of the compounds in the plasma samples were determined by LC-MS/MS analysis. Based on the plasma concentration data obtained from LC-MS/MS analysis, the pharmacokinetic parameters of the test compounds were calculated using the non-compartmental model in the pharmacokinetic calculation software WinNonlin v8.1.

[6] = test system: TMD8 cells; assay: Tumor cell proliferation IC50 (CCK-8), TMD8; details: Homo sapiens, TMD8, 72 h, read-out: IC50 for inhibiting the proliferation of tumor cells, TMD8
Method: (§1) The tumor cells used herein were cultured in a cell culture medium listed in table A at 37° C. in an incubator with 5% CO2.
(§2) After the cells were treated with the compounds of the present disclosure for a period of time, the cell viability detection reagent was added to the culture medium for cell viability assessment according to the instructions provided with the CCK-8 kit. […] The growth inhibition of the compounds of the present disclosure on cells was plotted by Prism Graphpad software, and the IC50 values of the compounds of the present disclosure were calculated therefrom.

[7] = test system: Mino cells; assay: Tumor cell proliferation IC50 (CCK-8), Mino; details: Homo sapiens, 72 h, read-out: IC50 for inhibiting the proliferation of tumor cells, Mino;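 further: cell viability assessed with CCK-8 reagent after compound exposure, IC50 derived from plotted growth inhibition curves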
Method: as §1, §2

[8] = test system: MM.1S cells; assay: Tumor cell proliferation IC50 (CCK-8), MM.1S; details: Homo sapiens, MM1.S, 72 h, read-out: IC50 for inhibiting the proliferation of tumor cells, MM.1S;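 further: viability of cultured cells read by CCK-8 reagent after compound exposure, growth inhibition curves fitted to derive IC50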
[9] = test system: MM.1R cells; assay: Tumor cell proliferation IC50 (CCK-8), MM.1R; details: Homo sapiens, 72 h, read-out: IC50 for inhibiting the proliferation of tumor cells, MM.1R
Method: as §1, §2

[10] = test system: Ramos cells; assay: Tumor cell proliferation IC50 (CCK-8), Ramos; details: Homo sapiens, 72 h, read-out: IC50 for inhibiting the proliferation of tumor cells, Ramos
Method: as §1, §2

[11] = test system: SW620 cells; assay: Tumor cell proliferation IC50 (CCK-8), SW620; details: Homo sapiens, SW-620, 96 h, read-out: IC50 for inhibiting the proliferation of tumor cells, SW620
Method: as §1, §2

[12] = test system: Kasumi-1 cells; assay: Tumor cell proliferation IC50 (CCK-8), Kasumi-1; details: Homo sapiens, Kasumi 1, 72 h, read-out: IC50 for inhibiting the proliferation of tumor cells, Kasumi-1
Method: as §1, §2

[13] = test system: SU-DHL-4 cells; assay: Tumor cell proliferation IC50 (CCK-8), SU-DHL-4; details: Homo sapiens, SU-DHL-4, 72 h, read-out: IC50 for inhibiting the proliferation of tumor cells, SU-DHL-4
Method: (§3) Prior to experimentation, all cells used were correctly identified by STR profiling, and tested negative for mycoplasma through routine screenings.
as §2

[14] = test system: SU-DHL-6 cells; assay: Tumor cell proliferation IC50 (CCK-8), SU-DHL-6; details: Homo sapiens, SU-DHL-6, 72 h, read-out: IC50 for inhibiting the proliferation of tumor cells, SU-DHL-6
Method: as §3, §2

[15] = test system: CCRF-CEM cells; assay: Tumor cell proliferation IC50 (CCK-8), CCRF-CEM; details: Homo sapiens, 96 h, read-out: IC50 for inhibiting the proliferation of tumor cells, CCRF-CEM;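 further: cell viability measured with CCK-8 reagent after compound treatment, IC50 taken from plotted growth inhibition curves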
[16] = test system: MDA-MB-231 cells; assay: Tumor cell proliferation IC50 (CCK-8), MDA-MB-231; details: Homo sapiens, MDA-MB-231, 96 h, read-out: IC50 for inhibiting the proliferation of tumor cells, MDA-MB-231
Method: as §3, §2

[17] = test system: Daudi cells; assay: Tumor cell proliferation IC50 (CCK-8), Daudi; details: Homo sapiens, read-out: IC50 for inhibiting the proliferation of tumor cells, Daudi;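 further: cell viability read with CCK-8 reagent after compound exposure of Daudi cells, IC50 derived from plotted growth inhibition curves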
[18] = test system: MV-4-11 cells; assay: Tumor cell proliferation IC50 (CCK-8), MV-4-11; details: Homo sapiens, MV4-11, 96 h, read-out: IC50 for inhibiting the proliferation of tumor cells, MV-4-11
Method: as §1, §2

[19] = hPBMC cells, compound 500 nM, 24 hours, Western blot

Chain of human Cereblon WT GST-tagged protein (Q96SW2 whole entry): as the sequence (Q96SW2 whole entry) above

SMILES	IC50 [6] [nM]	IC50 [7] [nM]	IC50 [8] [nM]	IC50 [9] [nM]	IC50 [10] [nM]	IC50 [11] [nM]	IC50 [12] [nM]	IC50 [13] [nM]	IC50 [14] [nM]	IC50 [15] [nM]	IC50 [16] [nM]	also measured
O=C1CCC(N2Cc3cc(CN4CCN(Cc5ccccc5-c5ccc(Cl)cc5)CC4)ccc3C2=O)C(=O)N1 (centres unmarked) [GT-03355, 3-(5-((4-((4′-chloro-[1,1′-biphenyl]-2-yl)methyl)piperazin-1-yl)methyl)-1-oxoisoindolin-2-yl)piperidine-2,6-dione]	< 5	< 5	< 5	< 5	5 to 10	5 to 10	< 5	100 to 500	10 to 50	< 5	< 5	IC50 [1]: 770 nM; residual substrate protein level, IKZF1 [2, 19]: A (A represents a residual substrate protein level of <50%); residual substrate protein level, IKZF3 [3, 19]: A (A represents a residual substrate protein level of <50%); residual substrate protein level, GSPT1 [4, 19]: A (A represents a residual substrate protein level of <50%); AUC(0-t) [5]: > 500 ng·h/mL
Nc1cccc2c1C(=O)N(C1CCC(=O)NC1=O)C2=O (centres unmarked) [pomalidomide, reference compound]	500 to 1000	1000 to 5000	100 to 500	> 10000	1000 to 5000	> 10000	> 10000	> 10000	> 10000	> 10000	> 10000	degradation of IKZF1 protein (Western blot, FIG. 1) ([2]; hPBMC, 24 h, 50 nM): cannot degrade; degradation of IKZF3 protein (Western blot, FIG. 1) ([3]; hPBMC, 24 h, 50 nM): cannot degrade; degradation of GSPT1 protein (Western blot, FIG. 1) ([4]; hPBMC, 24 h, 50 nM): cannot degrade; IC50 [17]: 5000 to 10000 nM; IC50 [18]: > 10000 nM
